# Values joined by “and” are separate entries in the source; they are usually repeats but may differ in a detail not shown here. Identical values can stand only once.
# Tested on: 435261-313-R-J1-PDC tumor spheroid viability
# Assay: Anticancer human tumor 435261-313-R-J1-PDC patient-derived colon adenocarcinoma cell line growth inhibition [PI3K]
# Settings: spheroids with HUVEC and MSC; for viability, T/C: stronger effect = lower value
# How it was run: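 Combination activity was assessed by viability in multicellular tumor spheroids carrying HUVEC and MSC components. Agents were tested with PI3K inhibitors from a Cmax-based top dose (or 10 microM) downward in half-log increments.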
# [1] = curve of first compound, second compound 0.00316 µM
# [2] = curve of first compound, second compound 0.01 µM
# [3] = curve of first compound, second compound 0.0316 µM
# [4] = curve of first compound, second compound 0.1 µM
# [5] = curve of first compound, second compound 0.316 µM
# [6] = curve of first compound, second compound 1 µM
# [7] = second compound 0.00316 µM, first compound 0.0316 µM
# [8] = second compound 0.00316 µM, first compound 0.1 µM
# [9] = second compound 0.00316 µM, first compound 0.316 µM
# [10] = second compound 0.00316 µM, first compound 1 µM
# [11] = second compound 0.00316 µM, first compound 3.16 µM
# [12] = second compound 0.00316 µM, first compound 10 µM
# [13] = second compound 0.01 µM, first compound 0.0316 µM
# [14] = second compound 0.01 µM, first compound 0.1 µM
# [15] = second compound 0.01 µM, first compound 0.316 µM
# [16] = second compound 0.01 µM, first compound 1 µM
# [17] = second compound 0.01 µM, first compound 3.16 µM
# [18] = second compound 0.01 µM, first compound 10 µM
# [19] = second compound 0.0316 µM, first compound 0.0316 µM
# [20] = second compound 0.0316 µM, first compound 0.1 µM
# [21] = second compound 0.0316 µM, first compound 0.316 µM
# [22] = second compound 0.0316 µM, first compound 1 µM
# [23] = second compound 0.0316 µM, first compound 3.16 µM
# [24] = second compound 0.0316 µM, first compound 10 µM
# [25] = second compound 0.1 µM, first compound 0.0316 µM
# [26] = second compound 0.1 µM, first compound 0.1 µM
# [27] = second compound 0.1 µM, first compound 0.316 µM
# [28] = second compound 0.1 µM, first compound 1 µM
# [29] = second compound 0.1 µM, first compound 3.16 µM
# [30] = second compound 0.1 µM, first compound 10 µM
# [31] = second compound 0.316 µM, first compound 0.0316 µM
# [32] = second compound 0.316 µM, first compound 0.1 µM
# [33] = second compound 0.316 µM, first compound 0.316 µM
# [34] = second compound 0.316 µM, first compound 1 µM
# [35] = second compound 0.316 µM, first compound 3.16 µM
# [36] = second compound 0.316 µM, first compound 10 µM
# [37] = second compound 1 µM, first compound 0.0316 µM
# [38] = second compound 1 µM, first compound 0.1 µM
# [39] = second compound 1 µM, first compound 0.316 µM
# [40] = second compound 1 µM, first compound 1 µM
# [41] = second compound 1 µM, first compound 3.16 µM
# [42] = second compound 1 µM, first compound 10 µM
# 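Also: spheroids exposed to compounds for 7 days.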
compound,measurement,setting,value
CCCS(=O)(=O)Nc1ccc(F)c(C(=O)c2c[nH]c3ncc(-c4ccc(Cl)cc4)cc23)c1F + COc1c(OCCCN2CCOCC2)ccc2c3n(c(=NC(=O)c4cnc(N)nc4)nc12)CCN3,IC50,[1],4610 nM
same,IC50,[2],3020 nM
same,IC50,[3],< 31.6 nM
same,IC50,[4],< 31.6 nM
same,IC50,[5],< 31.6 nM
same,IC50,[6],< 31.6 nM
same,"viability, T/C",[7],66.6%
same,"viability, T/C",[8],77.1%
same,"viability, T/C",[9],103%
same,"viability, T/C",[10],83.7%
same,"viability, T/C",[11],72.4%
same,"viability, T/C",[12],4.06%
same,"viability, T/C",[13],46.7%
same,"viability, T/C",[14],71.3%
same,"viability, T/C",[15],70.8%
same,"viability, T/C",[16],91.2%
same,"viability, T/C",[17],49.1%
same,"viability, T/C",[18],4.19%
same,"viability, T/C",[19],25.7%
same,"viability, T/C",[20],40.4%
same,"viability, T/C",[21],27.9%
same,"viability, T/C",[22],33.9%
same,"viability, T/C",[23],31.7%
same,"viability, T/C",[24],5.4%
same,"viability, T/C",[25],24.7%
same,"viability, T/C",[26],18.1%
same,"viability, T/C",[27],22%
same,"viability, T/C",[28],26.3%
same,"viability, T/C",[29],22.1%
same,"viability, T/C",[30],4.42%
same,"viability, T/C",[31],7.13%
same,"viability, T/C",[32],9.16%
same,"viability, T/C",[33],10.6%
same,"viability, T/C",[34],13.5%
same,"viability, T/C",[35],13.9%
same,"viability, T/C",[36],4.25%
same,"viability, T/C",[37],4.51%
same,"viability, T/C",[38],3.63%
same,"viability, T/C",[39],4.99%
same,"viability, T/C",[40],5.37%
same,"viability, T/C",[41],7.06%
same,"viability, T/C",[42],2.69%
CC(Cn1ccc(-c2ccc(C#N)c(Cl)c2)n1)NC(=O)c1cc(C(C)O)[nH]n1 (stereo not drawn),"viability, T/C",compound 0.0316 µM,97.2% and 88.6% and 70.7%
same,"viability, T/C",compound 0.1 µM,108% and 96.9% and 109%
same,"viability, T/C",compound 0.316 µM,130% and 117% and 107%
same,"viability, T/C",compound 1 µM,79.9% and 113% and 70.2%
same,"viability, T/C",compound 3.16 µM,110% and 105% and 108%
same,"viability, T/C",compound 10 µM,120% and 102% and 99.3%
same,IC50,curve of compound,> 10000 nM
CC1(C)CCC(Nc2ncc(C(F)(F)F)c(-c3c[nH]c4c(P(C)(C)=O)c(C#N)ccc34)n2)CN1 (stereo not drawn),"viability, T/C",compound 0.0316 µM,68.8% [middle of 4 runs]
same,"viability, T/C",compound 0.1 µM,59.7% [middle of 4 runs]
same,"viability, T/C",compound 1 µM,54.3% [middle of 4 runs]
same,"viability, T/C",compound 3.16 µM,51.3% [middle of 4 runs]
same,"viability, T/C",compound 10 µM,1.48% [middle of 4 runs]
CC(=O)c1c(C)c2cnc(Nc3ccc(N4CCNCC4)cn3)nc2n(C2CCCC2)c1=O + Cc1nc(NC(=O)N2CCCC2C(N)=O)sc1-c1ccnc(C(C)(C)C(F)(F)F)c1,IC50,[3],> 100 nM
same,IC50,[4],> 100 nM
same,IC50,[5],0.316 nM
same,IC50,[6],< 0.316 nM
same,IC50,"curve of first compound, second compound 3.16 µM",< 0.316 nM
same,IC50,"curve of first compound, second compound 10 µM",< 0.316 nM
same,"viability, T/C","second compound 0.0316 µM, first compound 0.000316 µM",61.5%
same,"viability, T/C","second compound 0.0316 µM, first compound 0.001 µM",91.9%
same,"viability, T/C","second compound 0.0316 µM, first compound 0.00316 µM",96.5%
same,"viability, T/C","second compound 0.0316 µM, first compound 0.01 µM",66%
same,"viability, T/C",[19],88.5%
same,"viability, T/C",[20],59.1%
same,"viability, T/C","second compound 0.1 µM, first compound 0.000316 µM",68%
same,"viability, T/C","second compound 0.1 µM, first compound 0.001 µM",69.4%
same,"viability, T/C","second compound 0.1 µM, first compound 0.00316 µM",69.5%
same,"viability, T/C","second compound 0.1 µM, first compound 0.01 µM",69.5%
same,"viability, T/C",[25],74.7%
same,"viability, T/C",[26],66.1%
same,"viability, T/C","second compound 0.316 µM, first compound 0.000316 µM",40.9%
same,"viability, T/C","second compound 0.316 µM, first compound 0.001 µM",60.9%
same,"viability, T/C","second compound 0.316 µM, first compound 0.00316 µM",40.9%
same,"viability, T/C","second compound 0.316 µM, first compound 0.01 µM",52.5%
same,"viability, T/C",[31],41.3%
same,"viability, T/C",[32],32.5%
same,"viability, T/C","second compound 1 µM, first compound 0.000316 µM",26.9%
same,"viability, T/C","second compound 1 µM, first compound 0.001 µM",27.5%
same,"viability, T/C","second compound 1 µM, first compound 0.00316 µM",35.2%
same,"viability, T/C","second compound 1 µM, first compound 0.01 µM",33.5%
same,"viability, T/C",[37],26.6%
same,"viability, T/C",[38],21.2%
same,"viability, T/C","second compound 3.16 µM, first compound 0.000316 µM",14.7%
same,"viability, T/C","second compound 3.16 µM, first compound 0.001 µM",14.2%
same,"viability, T/C","second compound 3.16 µM, first compound 0.00316 µM",13.9%
same,"viability, T/C","second compound 3.16 µM, first compound 0.01 µM",16.8%
same,"viability, T/C","second compound 3.16 µM, first compound 0.0316 µM",16.9%
same,"viability, T/C","second compound 3.16 µM, first compound 0.1 µM",15.9%
same,"viability, T/C","second compound 10 µM, first compound 0.000316 µM",10.2%
same,"viability, T/C","second compound 10 µM, first compound 0.001 µM",7.93%
same,"viability, T/C","second compound 10 µM, first compound 0.00316 µM",7.66%
same,"viability, T/C","second compound 10 µM, first compound 0.01 µM",9.02%
same,"viability, T/C","second compound 10 µM, first compound 0.0316 µM",10.4%
same,"viability, T/C","second compound 10 µM, first compound 0.1 µM",5.66%
CC(Cn1ccc(-c2ccc(C#N)c(Cl)c2)n1)NC(=O)c1cc(C(C)O)[nH]n1 (stereo not drawn) + CC(Nc1ccc2c(c1)OCCn1cc(N3C(=O)OCC3C(F)F)nc1-2)C(N)=O,IC50,[1],> 10000 nM
same,IC50,[2],> 10000 nM
same,IC50,[3],> 10000 nM
same,IC50,[4],< 31.6 nM
same,IC50,[5],< 31.6 nM
same,IC50,[6],< 31.6 nM
same,"viability, T/C",[7],75.6%
same,"viability, T/C",[8],79.1%
same,"viability, T/C",[9],93.8%
same,"viability, T/C",[10],106%
same,"viability, T/C",[11],94.3%
same,"viability, T/C",[12],106%
same,"viability, T/C",[13],53.1%
same,"viability, T/C",[14],90.6%
same,"viability, T/C",[15],105%
same,"viability, T/C",[16],106%
same,"viability, T/C",[17],82.4%
same,"viability, T/C",[18],95.1%
same,"viability, T/C",[19],74.5%
same,"viability, T/C",[20],78.5%
same,"viability, T/C",[21],93%
same,"viability, T/C",[22],77.4%
same,"viability, T/C",[23],95.9%
same,"viability, T/C",[24],86.2%
same,"viability, T/C",[25],41.5%
same,"viability, T/C",[26],54.3%
same,"viability, T/C",[27],40.1%
same,"viability, T/C",[28],44%
same,"viability, T/C",[29],46.2%
same,"viability, T/C",[30],53.8%
same,"viability, T/C",[31],28.6%
same,"viability, T/C",[32],24.6%
same,"viability, T/C",[33],20.2%
same,"viability, T/C",[34],21.7%
same,"viability, T/C",[35],25.9%
same,"viability, T/C",[36],27.5%
same,"viability, T/C",[37],17.1%
same,"viability, T/C",[38],17%
same,"viability, T/C",[39],18.3%
same,"viability, T/C",[40],19.2%
same,"viability, T/C",[41],16.9%
same,"viability, T/C",[42],20.5%

# From PubChem BioAssay AID1963976 (Molecular Pharmacology Branch, DTP, NCI, 2024)
